Experimental findings from patent US11680086B2, “Lipopeptide for potently inhibiting HIV, derivative thereof, pharmaceutical composition thereof and use thereof” (Institute of Pathogen Biology, Chinese Academy of Medical …, priority 2017, dated 2023) are described below.

Experiment [1] deals with 35 HIV-1 pseudoviruses (subtypes A, B, B', C, G, A/C, A/E, B/C).
Experiment [2] deals with N39 (NHR-derived polypeptide of gp41) (Human immunodeficiency virus type 1 group M subtype B, UniProt P04578). The class given is binding, HIV-1. The conditions noted are these: 10 μM each, PBS pH 7.2.
Chain of N39 (NHR-derived polypeptide of gp41) (P04578 528-566): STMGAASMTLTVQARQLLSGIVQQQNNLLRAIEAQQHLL
Experiment [3] relates to HIV-1 strain NL4-3 (NL4-3D36G). Kind of experiment: antiviral activity in serum of macaque after subcutaneous injection. It is filed as in vivo, macaques (rhesus monkeys). The note with it: 3 mg/kg subcutaneous. Here is the method: The specific method was as follows: 6 experimental macaques (rhesus monkeys) were selected, half male and half female, aged 3-4 years old, weighing 3.4-4.7 kg. […] The serum was separated according to a conventional method. The injection interval of each inhibitor was more than 2 weeks to ensure that there was no residue of the previous analyte. The serum activity against the HIV-1 strain NL4-3 (NL4-3D36G) was measured according to the experimental method of the pseudovirus-based assay in the above examples. The serum was diluted by 3 folds. […] Therefore, the lipopeptides of the present invention were not only potent but also were long-lasting effective.

Where two headings read alike, the source gives them in different places. Peptide text beside a SMILES is read from it. * marks the point of attachment. Stearoyl = CCCCCCCCCCCCCCCCCC(=O)* A value given as a limit tells only on which side of the number the result lay.

As for `CCCCCCCCCCCCCCCCCC(=O)NCCCC[C@H](NC(=O)[C@H](CCC(=O)O)NC(=O)[C@H](CC(C)C)NC(=O)[C@H](CCCCN)NC(=O)[C@H](CCCCN)NC(=O)[C@H](CC(C)C)NC(=O)[C@H](CCC(=O)O)NC(=O)[C@H](CCC(=O)O)NC(=O)[C@H](CCC(=O)O)NC(=O)[C@H](CC(N)=O)NC(=O)[C@H](CCCCN)NC(=O)[C@H](CCCCN)NC(=O)[C@H](CCC(N)=O)NC(=O)[C@H](CCC(N)=O)NC(=O)[C@H](CCC(=O)O)NC(=O)[C@H](CCC(=O)O)NC(=O)[C@H](C)NC(=O)[C@H](CCCCN)NC(=O)[C@H](CCCCN)NC(=O)[C@H](CC(C)C)NC(=O)[C@H](CC(C)C)NC(=O)[C@H](CCC(=O)O)NC(=O)[C@H](CCC(=O)O)NC(=O)[C@@H](NC(=O)[C@H](CCCCN)NC(=O)[C@H](CCC(N)=O)NC(=O)[C@H](CCC(=O)O)NC(=O)[C@H](Cc1c[nH]c2ccccc12)NC(C)=O)[C@@H](C)CC)C(N)=O` [LP-80] (Ac-WEQKIEELLKKAEEQQKKNEEELKKLEK(Stearoyl)-NH2), the IC50 (commonly the concentration that inhibits the measured activity by half) in experiment [1] (read-out: IC50 for many strains, many individual strains of the 35 pseudoviruses) is less than 1 pM; in experiment [1] (read-out: average IC50 for inhibition of various types of HIV-1 pseudoviruses, average over 35 pseudoviruses), 6 pM. Also, the “inhibitory activity against different subtypes of HIV-1 as folds of T-20” value in experiment [1] (relative to T-20, from average IC50) was found to be 6902 folds. In experiment [2], the “Tm value of the complex with N39” value is 79 °C. The “maximum serum dilution multiple for inhibiting 50% of NL4-3 infectivity” value is on record as 491409 folds in experiment [3] (6 hour after injection); 537206 folds in experiment [3] (8 hour after injection); 16157 folds in experiment [3] (72 hours (3 days) after injection); 1980 folds in experiment [3] (96 hours (4 days) after injection); 211 folds in experiment [3] (120 hours (5 days) after injection); 46 folds in experiment [3] (144 hours (6 days) after injection).
